According to US9227971B2, “Pyrazolo[1,5-a]pyrimidine compounds as mTOR inhibitors” (Merck Sharp & Dohme Corp., priority 2010, dated 2016):
Where two headings read alike, the source gives them in different places.

How the values were obtained:
[1] = tested on: phosphorylated AKT Ser473 (pAKT S473), mTORC2 activity, PC3 cells; test: mTOR target engagement assay, immunofluorescent cell-based, pAKT S473 readout (mTORC2 activity)
Procedure, shortened: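 After blocking, cells were stained overnight at 4 °C with anti-pAKT S473 antibody, then a fluorescent secondary; inhibition was read as reduced fluorescence intensity.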

[2] = tested on: phosphorylated 4E-BP1 Thr37/46 (p4E-BP1 Thr37/46), mTORC1 activity, PC3 cells; test: mTOR target engagement assay, immunofluorescent cell-based, p4E-BP1 Thr37/46 readout (mTORC1 activity); conditions: read-out: p4E-BP1 Thr37/46 IC50
Procedure, shortened: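 Cell-based immunofluorescence in PC3 cells: serially diluted compounds (0.25% DMSO, 5% FBS) applied for ninety minutes at 37° C before fixation and overnight 4° C staining of p4E-BP1 Thr37/46. Untreated DMSO wells set maximal phosphorylation; IC50 obtained by logistic fitting.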

[3] = Homo sapiens, PC-3, Table 3-1, PC3 cells
[4] = Homo sapiens, PC-3, Table 6-1, PC3 cells
[5] = Homo sapiens, PC-3, PC3 cells, compound treatment ninety minutes at 37° C.

Structure (SMILES)	IC50 [1, 3] [nM]	IC50 [2, 3] [nM]	IC50 [1, 5] [nM]	IC50 [2, 5] [nM]	further results
CS(=O)(=O)c1c([C@@H]2C[C@H]3CC[C@@H](C2)N3C(=O)c2cc(O)ccn2)nc2c(-c3ccc(-c4ccccc4)nc3)cnn2c1N [Compound 3.14, ((1R,3s,5S)-3-(7-amino-6-(methylsulfonyl)-3-(6-phenylpyridin-3-yl)pyrazolo[1,5-a]pyrimidin-5-yl)-8-azabicyclo[3.2.1]octan-8-yl)(4-hydroxypyridin-2-yl)methanone]	100 to 1000	1000 to 10000			
CS(=O)(=O)c1c([C@@H]2C[C@H]3CC[C@@H](C2)N3C(=O)c2cn[nH]c2N)nc2c(-c3ccc(-c4ccccc4)nc3)cnn2c1N [Compound 3.90, (5-amino-1H-pyrazol-4-yl)((1R,3s,5S)-3-(7-amino-6-(methylsulfonyl)-3-(6-phenylpyridin-3-yl)pyrazolo[1,5-a]pyrimidin-5-yl)-8-azabicyclo[3.2.1]octan-8-yl)methanone]	1 to 100	1 to 100			
CC(=O)c1c([C@@H]2C[C@H]3CC[C@@H](C2)N3C=O)nc2c(-c3ccc(-c4ncc[nH]4)nc3)cnn2c1N [Compound 6.15, (1R,3s,5S)-3-(3-(6-(1H-imidazol-2-yl)pyridin-3-yl)-6-acetyl-7-aminopyrazolo[1,5-a]pyrimidin-5-yl)-8-azabicyclo[3.2.1]octane-8-carbaldehyde]					IC50 [1, 4]: 1 to 100 nM; IC50 [2, 4]: 1 to 100 nM
CS(=O)(=O)c1c([C@@H]2C[C@H]3CC[C@@H](C2)N3C(=O)c2ccn[nH]2)nc2c(-c3ccc(-c4ccccc4)nc3)cnn2c1N [Compound 3.74, ((1R,3s,5S)-3-(7-amino-6-(methylsulfonyl)-3-(6-phenylpyridin-3-yl)pyrazolo[1,5-a]pyrimidin-5-yl)-8-azabicyclo[3.2.1]octan-8-yl)(1H-pyrazol-5-yl)methanone]	1 to 100	1 to 100			
CC(=O)c1c([C@@H]2C[C@H]3CC[C@@H](C2)N3C(=O)Cc2nnn[nH]2)nc2c(-c3ccc(-c4ccccc4)nc3)cnn2c1N [Compound 1.1.20, 1-((1R,3s,5S)-3-(6-acetyl-7-amino-3-(6-phenylpyridin-3-yl)pyrazolo[1,5-a]pyrimidin-5-yl)-8-azabicyclo[3.2.1]octan-8-yl)-2-(1H-tetrazol-5-yl)ethanone]			100 to 1000	1000 to 10000	
Nc1cc([C@@H]2C[C@H]3CC[C@@H](C2)N3)nc2c(-c3ccc(-c4ccccc4)nc3)cnn12 [Compound 2.23, 5-((1R,3s,5S)-8-azabicyclo[3.2.1]octan-3-yl)-3-(6-phenylpyridin-3-yl)pyrazolo[1,5-a]pyrimidin-7-amine]			1000 to 10000	1000 to 10000	
CS(=O)(=O)c1c([C@@H]2C[C@H]3CC[C@@H](C2)N3C(=O)c2cnn[nH]2)nc2c(-c3ccc(C4(O)CCC4)nc3)cnn2c1N [Compound 7.30, ((1R,3s,5S)-3-(7-amino-3-(6-(1-hydroxycyclobutyl)pyridin-3-yl)-6-(methylsulfonyl)pyrazolo[1,5-a]pyrimidin-5-yl)-8-azabicyclo[3.2.1]octan-8-yl)(1H-1,2,3-triazol-5-yl)methanone]					IC50 ([1]; Table 7-2, PC3 cells): 100 to 1000 nM; IC50 ([2]; Table 7-2, PC3 cells): 100 to 1000 nM
COc1ccc2ncc(-c3cnn4c(N)c(C5CC5)c([C@@H]5C[C@H]6CC[C@@H](C5)N6C(=O)c5nnc[nH]5)nc34)cc2c1 [Compound 4.24, ((1R,3s,5S)-3-(7-amino-6-cyclopropyl-3-(6-methoxyquinolin-3-yl)pyrazolo[1,5-a]pyrimidin-5-yl)-8-azabicyclo[3.2.1]octan-8-yl)(4H-1,2,4-triazol-3-yl)methanone]			100 to 1000	100 to 1000	
CC(=O)c1c([C@@H]2C[C@H]3CC[C@@H](C2)N3C(=O)CO)nc2c(-c3ccc(-c4n[nH]c(C)c4F)nc3)cnn2c1N [Compound 1.11..107, 1-((1R,3s,5S)-3-(6-acetyl-7-amino-3-(6-(4-fluoro-5-methyl-1H-pyrazol-3-yl)pyridin-3-yl)pyrazolo[1,5-a]pyrimidin-5-yl)-8-azabicyclo[3.2.1]octan-8-yl)-2-hydroxyethanone]			100 to 1000	100 to 1000	
